# Reference: patent US8278296B2, “Manipulation of brain CDP-diacylglycerol and uses thereof” (priority 2006, dated 2012)
# “Also recorded” adds a separate entry of the source.
# What was measured:
# [1] = test system: phosphoinositide-specific phospholipase C / PI metabolism; assay: Blockade of PI hydrolysis (neomycin, U73122) on antidepressant-induced CDP-DG, PI and IP responses in brain slices; assay type: cell-based, rat; settings: for sensitivity of drug effects to inhibition by U73122: compared with tricyclic agents
# CDP-diacylglycerol = assay: [3H]CDP-diacylglycerol accumulation in rat brain slices; assay type: cell-based; settings: for effect on [3H]CDP-diacylglycerol accumulation: rat hippocampal, prefrontal cortical and striatal slices, LiCl present; for effect on [3H]CDP-diacylglycerol accumulation / effect on CDP-DG production: 90 min; for effect on CDP-diacylglycerol accumulation: rat cerebrocortical slices, 0.1-300 μM, other psychotropic compounds; for effect on CDP-DG accumulation: MAOIs; for effect on CDP-DG production: monoamine receptor agonists, frontal cortex or hippocampal tissues, 5 mM LiCl
# rats = assay: Forced swim test; assay type: in vivo, rat; settings: for effect on immobility times in forced swim test: modified regimen, i.p. at 3 h and 1 h before testing; for effect of neomycin pretreatment on immobility-reducing effects of antidepressant drugs: imipramine, fluoxetine, maprotiline
# Method: One group of rats was acclimated once in the swim chamber and subgroups of three animals each were administered indicated doses (corresponding to 0, 3, 10, and 30 mg/kg) of imipramine at 24, 3, and 1 h before behavioral testing (conventional regimen). The other group of rats from the same batch was acclimated twice at 48 and 24 h before the time of testing and subgroups were administered the same doses of imipramine at 3 and 1 h before behavioral testing. Animals in each group were then tested in the forced swim apparatus for 5 min and the immobility times determined. […] Each bar is the mean±SEM (n=6). […] Animals were prepared as in FIG. 14 for the modified regimen. […] Test drugs were administered at indicated doses 3 and 1 h before behavioral testing. […] Immobility response data for set one were analyzed by one-way ANOVA (response by dose) in order to determine if the drug by itself produced significant effects. Data for set two were analyzed by one-way ANOVA (response by group, where group comprised control, neomycin, drug, neomycin+drug), followed by posthoc Tukey tests. […] The forced swim test (FST) was applied with some modifications. Rats were transferred to the testing room between 9:00-10:00 AM and allowed at least an hour before being placed individually into translucent polypropylene cylinders (46 cm tall×25 cm in diameter) containing 27 cm depth of water maintained at 25° C. […] After 15 min in the water, the rats were removed, toweled, and allowed to dry in a warm environment before being returned to their home cage. This acclimation step was repeated after 24 h, with the exposure time reduced from 15 to 5 min. […] During the second acclimation exposure, the duration of immobility was recorded for each animal. […] To adjudge that a rat had become immobile, the animal had to float passively in the water in a slightly hunched, but upright position, making only minimal movements necessary to keep its head above the water (65-66). On the third day when animals were to undergo experimental assessment, saline or the indicated antidepressant agents were administered i.p. at 3 h and at 1 h before behavioral testing. The drugs were dissolved in distilled-deionized water and diluted in saline. Control subjects received 0.9% saline. […] Data were analyzed by one-way analysis of variance (ANOVA).
# phosphatidylinositides = assay: [3H]inositol phospholipid (phosphatidylinositide) resynthesis in rat brain slices; assay type: cell-based; settings: for effect on [3H]inositol labeling of PIs (phosphatidylinositide synthesis): hippocampus, frontal cortex, striatum slices; for effect on [3H]inositol labeling of PIs (phosphatidylinositide synthesis) / effect on PI synthesis: 90 min; for effect on PI synthesis: monoamine receptor agonists, frontal cortex or hippocampal tissues, 5 mM LiCl
# inositol phosphates = assay: [3H]inositol phosphate accumulation in rat brain slices; assay type: cell-based; settings: for effect on accumulation of IPs: 3-300 μM, hippocampus, frontal cortex, striatum slices; for effect on IP accumulation: monoamine receptor agonists, frontal cortex or hippocampal tissues, 5 mM LiCl, 90 min
# 5HT2 receptor [2] = test system: 5HT2 receptor
# Method: Hippocampal slices were incubated with either [^3H]inositol (FIGS. 13A-13B) or [^3H]cytidine (FIG. 13C) for 30 min, followed by addition of indicated concentrations of LY53857 (6-methyl-1-(1-methylethyl)-ergoline-8β-carboxylic acid 2-hydroxy-1-methylpropyl ester maleate). […] After 60 min, tritiated inositol phosphate, inositol phospholipids, or CDP-diacylglycerol were assayed. Each bar is the mean±SEM (n=6). Data for each analyte were normalized across experiments and test drugs and then were analyzed for each drug by One-Way ANOVA of responses measured at the four concentration conditions of LY53857 (0, 0.1, 1, 10 μM). The ANOVAs were followed with Dunnett tests comparing the response in the presence of each concentration of LY53857 to the control effect of the antidepressant alone.
# To examine the extent to which the enhancing effects of antidepressant agents on inositol phosphate accumulation were dependent on postsynaptic 5HT2 receptor stimulation, each antidepressant was challenged with a range of concentrations of the 5HT2 receptor-selective antagonist, LY53857 (71-72). The antagonist was added after the prelabeling phase, but 15 min prior to the addition of α-methylserotonin to the incubating slices.
# 5HT2 receptor [3] = assay: α-methylserotonin-stimulated IP accumulation in tissues prelabeled with [3H]inositol in presence of antidepressants; assay type: cell-based, rat
# [4] = test system: CDP-diacylglycerol/inositol phosphate; assay: CDP-DG/IP ratio calculated from brain slice data; assay type: cell-based, rat
# Method: FIGS. 9A-9C are ratios of antidepressant-induced CDP-diacylglycerol versus inositol phosphates. The data in FIGS. 1A-1C, 2A-2B, 3A-3C, 4A-4B, and 5A-5C were recalculated by dividing the CDP-diacylglycerol effects of each concentration of each antidepressant agent by the corresponding effects of the agent on inositol phosphate accumulation to yield the CDP-diacylglycerol/inositol phosphate (CDP-DG/IP) ratios shown. […] Data for each agent were analyzed by One-Way ANOVA followed by posthoc Dunnett tests. ^#p<0.05; *p<0.01; compared to the respective control (zero drug concentration).
# As used herein, the term “CDP-DG/IP ratio” refers to the relative value of an index which is the quotient of a level of cellular CDP-diacylglycerol divided by a level of inositol phosphate in a tissue or cell or tissue cultures thereof, e.g., a mammalian brain tissue or blood platelets, a human brain tissue or blood platelets, or other cells or tissues having the ability to metabolize CDP-diacylglycerol and phosphoinositides. Levels may be determined, but are not limited to, using molar concentration or a radiolabel.
# To determine if antidepressant agents exert differential effects on CDP-DG production compared to PI hydrolysis, the ratios of CDP-DG production relative to the IPs (CDP-DG/IP ratio) in corresponding treatment conditions were examined.
# Corresponding CDP-DG ratios were calculated as for the antidepressant agents. […] The ratios of CDP-DG production relative to IP accumulation are shown on the far right of the graphs in FIGS. 10A-10C and FIGS. 11A-11D.
# [5] = hippocampal slices, 0.1, 1, 10 μM
# [6] = monoamine receptor agonists, frontal cortex or hippocampal tissues
compound,measurement,setting,value
COc1ccc2c(c1)CC[C@@H]1[C@@H]2CC[C@]2(C)[C@@H](NCCCCCCN3C(=O)C=CC3=O)CC[C@@H]12 [U73122],inhibition of antidepressant-stimulated IP accumulation,"[1]; 100 μM fluoxetine or 300 μM imipramine, paroxetine, maprotiline, nomifensine, hippocampal or cortical slices",completely blocked
same,inhibition of antidepressant drug effects on CDP-DG production,"[1]; 0.1 to 10 μM U73122, cortical or hippocampal slices","significantly reduced, but was unable to completely block; also recorded: only partially reduced"
same,effect of inhibitor by itself on basal CDP-DG production,[1]; U73122 alone,did not significantly alter; also recorded: no significant effect
same,effect of inhibitor by itself on basal IP accumulation,[1]; U73122 alone,did not significantly alter; also recorded: no significant effect
same,inhibition of SKF38393-induced IP accumulation,[1]; brain slices,blocked
CNCCC(Oc1ccc(C(F)(F)F)cc1)c1ccccc1 (stereo not drawn) [fluoxetine],sensitivity of drug effects to inhibition by U73122,[1],more sensitive
same,effect on [3H]CDP-diacylglycerol accumulation,CDP-diacylglycerol,significantly and dose-dependently enhanced
same,effect on immobility times in forced swim test,rats,significant and dose-dependent reductions
same,effect on [3H]inositol labeling of PIs (phosphatidylinositide synthesis),phosphatidylinositides,significantly increased
same,effect on accumulation of IPs,inositol phosphates,significantly and dose-dependently stimulated
CN1C(=O)CN=C(c2ccccc2)c2cc(Cl)ccc21 [diazepam],effect on CDP-diacylglycerol accumulation,CDP-diacylglycerol,No significant effects or concentration-related effects
NO [hydroxylamine],effect on CDP-diacylglycerol accumulation,CDP-diacylglycerol,No significant effects or concentration-related effects
"CC(O)C(C)OC(=O)[C@@H]1C[C@@H]2c3cccc4c3c(cn4C(C)C)C[C@H]2N(C)C1.O=C(O)/C=C\C(=O)O (stereo partly drawn) [LY53857, 6-methyl-1-(1-methylethyl)-ergoline-8β-carboxylic acid 2-hydroxy-1-methylpropyl ester maleate]",increase of basal CDP-diacylglycerol,"5HT2 receptor [2]; 0.1 μM, hippocampal slices",20%
same,inhibition of IP responses to antidepressant agents,"5HT2 receptor [2]; hippocampal slices, 300 μM imipramine, desipramine, paroxetine, maprotiline or 100 μM fluoxetine",completely blocked
same,effect on basal levels of IPs,5HT2 receptor [2]; [5],did not significantly alter
same,effect on basal levels of PIs,5HT2 receptor [2]; [5],did not significantly alter
same,inhibition of antidepressant-induced CDP-diacylglycerol responses,"5HT2 receptor [2]; hippocampal slices, all drugs",statistically significantly inhibited
same,inhibition of antidepressant-induced PI labeling,"5HT2 receptor [2]; hippocampal slices, all drugs",statistically significantly inhibited
CCN1CCCC1CNC(=O)c1cc(S(N)(=O)=O)ccc1OC (stereo not drawn) [sulpiride],effect on CDP-diacylglycerol accumulation,CDP-diacylglycerol,No significant effects or concentration-related effects
CN1[C@@H]2CC[C@H]1C[C@@H](OC(c1ccccc1)c1ccccc1)C2 [benztropine],effect on CDP-diacylglycerol accumulation,CDP-diacylglycerol,No significant effects or concentration-related effects
CNCCCC12CCC(c3ccccc31)c1ccccc12 [maprotiline],effect on [3H]CDP-diacylglycerol accumulation,CDP-diacylglycerol,significantly and dose-dependently enhanced
same,effect on immobility times in forced swim test,rats,significant and dose-dependent reductions
same,effect on [3H]inositol labeling of PIs (phosphatidylinositide synthesis),phosphatidylinositides,significantly increased
same,effect on accumulation of IPs,inositol phosphates,significantly and dose-dependently stimulated
CN(C)CCCN1c2ccccc2CCc2ccccc21 [imipramine],effect on [3H]CDP-diacylglycerol accumulation,CDP-diacylglycerol,significantly and dose-dependently enhanced
same,lowest concentration with statistically significant CDP-diacylglycerol response,"CDP-diacylglycerol; striatum slices, posthoc Dunnett test",30 µM
same,effect on immobility behavior in forced swim test,"rats; conventional and modified regimens, 0, 3, 10, 30 mg/kg",significant dose-related effects; also recorded: significant and dose-related
same,effect on immobility times in forced swim test,rats,significant and dose-dependent reductions
same,effect on [3H]inositol labeling of PIs (phosphatidylinositide synthesis),phosphatidylinositides,significantly increased
same,enhancement of α-methylserotonin effects on IP by prelabeling with antidepressant,5HT2 receptor [3]; frontal cortex tissues,concentration-dependently enhanced
same,enhancement of α-Me5HT-induced IP accumulation by prelabeling in presence of antidepressant,"5HT2 receptor [3]; hippocampus, frontal cortex, striatum",significantly enhanced
same,enhancement of α-methylserotonin effects on IP by prelabeling with antidepressant,5HT2 receptor [3]; striatal tissues,not significantly enhanced
same,effect on accumulation of IPs,inositol phosphates,significantly and dose-dependently stimulated
same,inhibition by 5HT2 receptor blockade (LY53857) of the drug's PI labeling / phosphatidylinositol resynthesis effect,"5HT2 receptor [2]; hippocampus, similar in frontal cortex","only partially, though significantly, reduced"
"[Cl-].[Li+] [LiCl, lithium chloride]",effect on antidepressant drug-induced [3H]CDP-diacylglycerol production,"CDP-diacylglycerol; 5 mM LiCl present or absent, fluoxetine or imipramine, frontal cortex or hippocampus, 60 min",did not significantly enhance or inhibit; also recorded: did not significantly alter
CN1Cc2c(N)cccc2C(c2ccccc2)C1 (stereo not drawn) [nomifensine],effect on [3H]CDP-diacylglycerol accumulation,CDP-diacylglycerol,significantly and dose-dependently enhanced
NNCCc1ccccc1 [phenelzine],CDP-DG/IP ratio,"[4]; antidepressant agents, increasing drug concentrations, hippocampus, similar in cortical tissues",increased significantly
same,concentration at which CDP-DG effects achieved significance,"CDP-diacylglycerol; frontal cortex slices, Dunnett's",1 µM
same,effect on CDP-DG accumulation,CDP-diacylglycerol; frontal cortex slices,robust effects
same,effect on [3H]inositol phospholipid synthesis (PI resynthesis),"phosphatidylinositides; rat cortical slices, MAOIs",significant and concentration-dependent increases
C#CCN(C)[C@H](C)Cc1ccccc1 [selegiline],effect on CDP-diacylglycerol accumulation,CDP-diacylglycerol,No significant effects or concentration-related effects
COc1ccc2c(c1)CC[C@@H]1[C@@H]2CC[C@]2(C)[C@@H](NCCCCCCN3C(=O)CCC3=O)CC[C@@H]12 [U73123],effect on CDP-DG or IP responses,"[1]; inactive analog control, data not shown",without effect
CCN(CC)CCCC(C)Nc1c2ccc(Cl)cc2nc2ccc(OC)cc12 (stereo not drawn) [quinacrine],effect on CDP-diacylglycerol accumulation,CDP-diacylglycerol,No significant effects or concentration-related effects
Fc1ccc([C@@H]2CCNC[C@H]2COc2ccc3c(c2)OCO3)cc1 [paroxetine],sensitivity of drug effects to inhibition by U73122,[1],more sensitive
O=C1NC(=O)C(c2ccccc2)(c2ccccc2)N1 [phenytoin],effect on CDP-diacylglycerol accumulation,CDP-diacylglycerol,No significant effects or concentration-related effects
C[N+](C)(C)CCOC(N)=O [carbachol],CDP-DG/IP ratio,[4]; [6],dramatic decrease
same,effect on CDP-DG production,CDP-diacylglycerol,significantly increased
same,effect on PI synthesis,phosphatidylinositides,failed to increase
same,effect on IP accumulation,inositol phosphates,significantly increased
neomycin,effect of neomycin on SKF38393-induced decrease of immobility times,rats; iv 2 h prior to testing,blocked
same,effect of neomycin pretreatment on immobility-reducing effects of antidepressant drugs,rats; iv 2 h prior to testing,completely reversed
same,effect of neomycin pretreatment on immobility-reducing effects of antidepressant drugs,"rats; iv 2 h prior to testing, listed as Neomycin",abolished
same,effect of neomycin by itself on basal immobility times,rats; iv tail vein 2 h prior to testing,did not significantly alter
O=C(CCCN1CCC(O)(c2ccc(Cl)cc2)CC1)c1ccc(F)cc1 [haloperidol],effect on CDP-diacylglycerol accumulation,CDP-diacylglycerol,No significant effects or concentration-related effects
CN(C)CCCN1c2ccccc2Sc2ccc(Cl)cc21 [chloropromazine],effect on CDP-diacylglycerol accumulation,CDP-diacylglycerol,No significant effects or concentration-related effects
OCCN1CCN(CC/C=C2/c3ccccc3Sc3ccc(C(F)(F)F)cc32)CC1 [flupenthioxol],effect on CDP-diacylglycerol accumulation,CDP-diacylglycerol,No significant effects or concentration-related effects
N[C@@H]1C[C@H]1c1ccccc1 (racemic) [tranylcypromine],effect on CDP-DG accumulation,CDP-diacylglycerol; frontal cortex slices,statistically significant but modest effects
"Oc1cc2c(cc1O)C(c1ccccc1)CNCC2 (racemic) [SKF38393, (+/−)-1-phenyl-2,3,4,5-tetrahydro-(1H)-3-benzazepine-7,8-diol]",CDP-DG/IP ratio,[4]; [6],increased CDP-DG/IP ratios significantly
same,ratio of CDP-DG relative to PIs (CDP-DG/PI ratio),[4]; prefrontal cortical slices,significantly enhanced
same,ratio of CDP-DG relative to both inositol derivatives (CDP-DG/IP&PI),[4]; prefrontal cortical slices,significantly enhanced
same,effect on CDP-DG production,CDP-diacylglycerol,significantly increased
same,effect on immobility times in forced swim test,rats,significantly decreased immobility times
same,effect on PI synthesis,phosphatidylinositides,significantly enhanced
same,effect on IP accumulation,inositol phosphates,significantly increased
C#CCN(C)Cc1ccccc1 [pargyline],effect on CDP-diacylglycerol accumulation,CDP-diacylglycerol,No significant effects or concentration-related effects
O=C1CN=C(c2ccccc2)c2cc([N+](=O)[O-])ccc2N1 [nitrazepam],effect on CDP-diacylglycerol accumulation,CDP-diacylglycerol,No significant effects or concentration-related effects
